Consider 2 compounds from patent US20180235912A1, “PHARMACEUTICAL COMPOSITION FOR PREVENTING OR TREATING AUTOIMMUNE DISEASES COMPRISING THIOUREA DERIVATIVE” (SEOUL NATIONAL UNIVERSITY R & DB FOUNDATION, priority 2015, published 2018).

The subject of experiment [1] is CD4+ T cells from spleens. Kind of experiment: IL-17 secretion of spleen T cells, sandwich ELISA of culture supernatant. The following applies: mouse spleen CD4+ T cells, Th17 conditions. Format: cell-based. The method, then: CD4+ T cells were isolated from the spleens of 7 to 8-week-old C57BL/6 male mice, seeded in a 48-well dish at a density of 5×10^5 cells/well, pre-treated with a varying concentration of JC1-40 (0.1, 0.5, 10, and 50 μM) for 24 hours, and then cultured for a day in an RPMI1640 medium supplemented with 10% fetal bovine serum (FBS). After the culturing, the cells were cultured for 3 days under Th17 differentiation conditions (including 0.5 μg/mL of an anti-CD3 antibody, 1 μg/mL of an anti-CD28 antibody, 2 ng/mL of TGF-β, 20 ng/mL of IL-6, 10 μg/mL of anti-IL-4, and 10 μg/mL of anti-IFN-γ). Thereafter, the cells were collected, washed with a FACS buffer for flow cytometry, and then blocked at 4° C. for 15 minutes to inhibit non-specific binding. As a cell surface marker, an antibody against CD4 (anti-CD4-PerCP) was added thereto, and reacted at 4° C. for 30 minutes, and the resulting reaction mixture was washed with a perm wash buffer. […] A change of the stained cells was analyzed using flow cytometry.
In addition, a culture supernatant of the JC1-40-treated Th17 cells was collected to determine an amount of IL-17 using a sandwich ELISA method. […] Then, a PNPP/DEA solution was added thereto, and developed color, and the optical density was then measured at a wavelength of 405 nm.
For orientation: In an ELISA, binding on a coated surface is turned into a signal by an enzyme label.

Experiment [2] relates to peritoneal macrophages. Kind of experiment: M1 differentiation of intraperitoneal macrophages, PE-CD80 flow cytometry. The class given is cell-based. Particulars: mouse intraperitoneal macrophages, 10 ng/mL LPS, 20 μM, 24 hours. The method, then:
(§1) Peritoneal macrophages of 7 to 8-week-old C57BL/6 male mice were isolated, seeded in a 24-well dish at a density of 1×10^6 cells/well, and then cultured for 4 hours in an RPMI1640 medium supplemented with 10% fetal bovine serum (FBS). A peritoneal macrophage culture broth was treated with each of 10 ng/mL of LPS and 20 μM JC1-40 or JC1-42, as indicated herein, for 24 hours. In this case, the peritoneal macrophages were kept at 37° C. in a thermo-hygrostat chamber in which 5% CO2 and 95% air were maintained.
Further, a PE-CD80 antibody (eBioscience), which is a M1 marker for recognizing a change of M1 cells, was incubated in these cells for 30 minutes, and then subjected to flow cytometry. As a result, it was confirmed that the M1 differentiation was suppressed when the macrophages were treated with JC1-40, as shown in FIG. 3.

Experiment [3] deals with EL4 cell line. The experiment can be described thus: Foxp3 expression in T cell line, immunostaining and confocal microscopy. The following applies: EL4, 20 μM, Th17 differentiation conditions, confocal microscopy. The class given is cell-based, mouse.
For experiment [4], the system named is peritoneal macrophages. Kind of experiment: Transcription of inflammatory genes in primarily cultured intraperitoneal macrophages, real-time PCR. Format: cell-based. The following applies: mouse intraperitoneal macrophages, 10 ng/mL LPS, 20 μM, 24 hours. How it is done:
as §1
First, mRNA expression levels of the inflammatory markers, such as TNF-α, NOS2, IL-1β, and IL-6, which induce rheumatoid arthritis, were measured using a real-time PCR (i.e., real-time reverse transcriptase-polymerase chain reaction; quantitative polymerase chain reaction) assay. As a result, it can be seen that the mRNA levels of TNF-α, NOS2, IL-1β and IL-6, which are involved in the induction of inflammation, in the intraperitoneal macrophages were reduced when the cells were treated with JC1-40 or JC1-42, as shown in FIG. 2.
(Real-time PCR tracks product formation cycle by cycle.)

Experiment [5] concerns human peripheral blood mononuclear cells (PBMCs). The experiment can be described thus: Th17 and Treg differentiation of CD4+ cells from PBMCs, flow cytometry. The class given is cell-based. Particulars: human CD4+ cells from PBMCs, 10, 20 and 40 μM, Th17 conditions 3 days. How it is done: CD4+ cells were isolated from peripheral blood mononuclear cells (PBMCs) of a healthy human, pre-treated with a varying concentration (10, 20, and 40 μM) of JC1-40, and then cultured for 3 days under Th17 differentiation conditions (including 0.5 μg/mL of anti-CD3, 0.5 μg/mL of anti-CD28, 10 μg/mL of anti-IFN-γ, 10 μg/mL of anti-IL-4, 20 ng/mL of IL-6, and 20 ng/mL of IL-1β). The expression of Th17 (anti IL-17 PE) and Treg (Anti Foxp3-FITC) in these cells was confirmed using flow cytometry. Also, an amount of IL-17 in these supernatants was measured using ELISA.
On the technique in general: In flow cytometry, cells or beads pass a laser one at a time.

Experiment [6] has as its system Raw 264.7 macrophage cell line. The experiment can be described thus: Transcription of inflammatory genes in LPS-treated macrophage cell line, real-time PCR. Format: cell-based, mouse. The following applies: Raw 264.7, 50 ng/mL LPS, 20 μM, 24 hours. The method, then:
A mouse macrophage cell line Raw 264.7 (ATCC TIB-71) was purchased from the American Type Culture Collection (ATCC). Raw 264.7 cells (2×10^5 cells/well) were seeded in a 6-well culture dish, and cultured for a day in a Dulbecco's modified Eagle's medium (DMEM) supplemented with 10% fetal bovine serum (FBS). The Raw 264.7 cells were kept at 37° C. in a thermo-hygrostat chamber in which 5% CO2 and 95% air were maintained. After the culturing, the cells were treated with 50 ng/mL of lipopolysaccharides (LPS) and 20 μM JC1-40 for 24 hours. Then, mRNA expression levels of the inflammatory markers, such as TNF-α, NOS2, IL-1β, and IL-6, which induce rheumatoid arthritis, were measured using a real-time PCR (i.e., real-time reverse transcriptase-polymerase chain reaction; quantitative polymerase chain reaction) assay.

Experiment [7] relates to EL4 cell line. The experiment can be described thus: RORα and IL-17 transcription in T cell line under Th17 differentiation conditions, real-time PCR. Particulars: EL4, 20 μM pre-treatment 24 hours, Th17 differentiation conditions 48 hours. The class given is cell-based, mouse. How it is done:
A mouse T cell EL4 cell line (5×10^5 cells/well) was seeded in a 24-well culture dish, pre-treated with 20 μM JC1-40 for 24 hours, and cultured for a day in a RPMI 1640 medium supplemented with 10% FBS. The EL4 cell line was kept at 37° C. in a thermo-hygrostat chamber in which 5% CO2 and 95% air were maintained. After the culturing, the cells were cultured for 48 hours under Th17 differentiation conditions (including 0.5 μg/mL of an anti-CD3 antibody, 1 μg/mL of an anti-CD28 antibody, 2 ng/mL of TGF-β, 20 ng/mL of IL-6, 10 μg/mL of anti-IL-4, and 10 μg/mL of anti-IFN-γ). Expression levels of RORα, which is a JC1-40-activated nuclear receptor, and IL-17, which is an inflammatory marker inducing rheumatoid arthritis, were measured using a real-time PCR (i.e., real-time reverse transcriptase-polymerase chain reaction; quantitative polymerase chain reaction) assay.

Experiment [8] relates to peritoneal macrophages. Kind of experiment: Transcription of M2 anti-inflammatory genes in primarily cultured intraperitoneal macrophages, real-time PCR. Format: cell-based. Particulars: mouse intraperitoneal macrophages, 20 ng/mL IL-4, 20 μM, 24 hours. How it is done:
as §1, with “of 20” for “of 10”, “of IL-4” for “of LPS”, “hours. Thereafter, mRNA expression levels of the M2 anti-inflammatory markers, such as IL-10, Arg1, Retnla, and CD206, […], were measured using a real-time PCR (i.e., real-time reverse transcriptase-polymerase chain reaction; quantitative polymerase chain reaction) assay.” for “hours.”

Experiment [9] relates to CD4+ T cells from spleens. Kind of experiment: Th17 differentiation of primarily cultured spleen T cells, flow cytometry. The class given is cell-based. The following applies: mouse spleen CD4+ T cells, 0.1, 0.5, 10 and 50 μM, Th17 conditions 3 days. The method, then:
CD4+ T cells were isolated from the spleens of 7 to 8-week-old C57BL/6 male mice, seeded in a 48-well dish at a density of 5×10^5 cells/well, pre-treated with a varying concentration of JC1-40 (0.1, 0.5, 10, and 50 μM) for 24 hours, and then cultured for a day in an RPMI1640 medium supplemented with 10% fetal bovine serum (FBS). After the culturing, the cells were cultured for 3 days under Th17 differentiation conditions (including 0.5 μg/mL of an anti-CD3 antibody, 1 μg/mL of an anti-CD28 antibody, 2 ng/mL of TGF-β, 20 ng/mL of IL-6, 10 μg/mL of anti-IL-4, and 10 μg/mL of anti-IFN-γ). Thereafter, the cells were collected, washed with a FACS buffer for flow cytometry, and then blocked at 4° C. for 15 minutes to inhibit non-specific binding. As a cell surface marker, an antibody against CD4 (anti-CD4-PerCP) was added thereto, and reacted at 4° C. for 30 minutes, and the resulting reaction mixture was washed with a perm wash buffer. After a Cytofix/Cytoperm process was performed at 4° C. for 20 minutes, the mixture was washed with a perm wash buffer. Anti-IL-17 PE was added thereto, and reacted at 4° C. for 30 minutes, and the resulting reaction mixture was washed with a perm wash buffer. A change of the stained cells was analyzed using flow cytometry.

Experiment [10] concerns type II collagen-induced arthritis (CIA). The experiment can be described thus: Type II collagen-induced arthritis (CIA) animal model. The following applies: DBA male mice. Format: in vivo, mouse. The method, then: 6-week-old DBA male mice were inoculated with bovine CII (Chondrex Inc.) emulsified in CFA (Chondrex Inc.), and re-inoculated after 15 days to induce rheumatoid arthritis. After the first administration, JC1-40 dissolved in 0.5% carboxymethyl cellulose (CMC) was continuously orally administered three times a week to the mice at a dose of 10 mg/kg. A 0.5% CMC vehicle and 5 mg/kg of Enbrel as the positive control were administered to the other groups in the same manner. The ratio of the population of the mice developing an arthritic disease was calculated as incidence, and the arthritic tissues were pathophysiologically examined to calculate a degree of progression of the disease as a score and compare conditions of the rheumatoid arthritis disease between the groups. The clinical scores were evaluated using a clinical scoring system which scores the swelling and redness in feet or tail regions by observing arthritis lesions of mice with the naked eye every day to check a degree of progression of inflammatory diseases in the joints.

For experiment [11], the system named is osteoclast precursor differentiated from human PBMCs. Kind of experiment: Osteoclast differentiation-related factor expression in osteoclast precursor from PBMCs, real-time PCR. The class given is cell-based. Particulars: M-CSF 25 ng/mL, RANKL 30 ng/mL, 10, 20, 40 μM. How it is done:
PBMCs of a healthy human were isolated, stimulated with M-CSF (25 ng/mL) for 3 days to induce differentiation into an osteoclast precursor. After 3 days, a medium was replaced with a fresh one, and the cells were stimulated with varying concentrations of M-CSF (25 ng/mL), RANKL (30 ng/mL), and JC1-40 (10, 20, 40 μM), and cultured for 3 days. After the medium was replaced every 3 days, the same stimulus was applied to the cells while a differentiation state of the cells was observed.
RNA was isolated from the differentiated cells, and synthesized into cDNA. Thereafter, a change in mRNA expression levels of the osteoclast differentiation-related factors, Cathepsin K and TRAP, was analyzed using real-time PCR.

[12] abbreviates: 10 mg/kg orally three times a week.

As for `CNC(=S)NCc1ccc(OCc2ccccc2)cc1` [JC1-40, 1-(4-benzyloxy-benzyl)-3-methyl-thiourea], the “amount of secreted IL-17 protein in the culture broth” value in experiment [1] is given as “reduced”. For the same compound, the “M1 differentiation (CD80 marker)” value in [2] is “suppressed”. For the same compound, the “expression level of Foxp3” value in [3] is “increased”. For the same compound, in experiment [4], the “mRNA level of IL-1β” value was “reduced”, the “mRNA level of IL-6” value was “reduced”, the “mRNA level of NOS2” value is “reduced” and the “mRNA level of TNF-α” value is “reduced”. In addition, in experiment [5], the “amount of (FOXP3 positive) cells differentiated into Treg” value was “increased” and the “amount of (IL-17 positive) T cells differentiated into Th17” value is reported as “decreased”. In addition, in experiment [6], the “transcription level of IL-1β” value was “reduced”, the “transcription level of IL-6” value is “reduced”, the “transcription level of NOS2” value is recorded as “reduced” and the “transcription level of TNF-α” value is on record as “reduced”. In [7], the “transcription level of IL-17” value is listed as “decreased” and the “transcription level of the nuclear receptor RORα” value is reported as “increased”. Further, in experiment [8], the “transcription level of Arg1” value is reported as “increased”, the “transcription level of CD206” value is reported as “increased”, the “transcription level of IL-10” value is reported as “increased” and the “transcription level of Retnla” value is reported as “increased”. Besides, the “amount of IL-17 positive cells differentiated into Th17” value in [9] is given as “decreased”. Also, in experiment [10] (setting [12]), the arthritis incidence entry is “suppressed” and the arthritis scores result is recorded as “suppressed”. Also, in [10] (10 mg/kg orally vs 5 mg/kg Enbrel), the “effect compared to Enbrel (positive control)” value is listed as “superior effect”. Besides, in experiment [11], the “expression of osteoclast differentiation-related factors (Cathepsin K and TRAP mRNA)” value is “significantly reduced”.
In the case of `CNC(=S)NCc1ccc(Oc2ccccc2)cc1` [JC1-42, 1-(4-phenoxy-benzyl)-3-methyl-thiourea], in experiment [4], the “mRNA level of IL-1β” value is “reduced”, the “mRNA level of IL-6” value is recorded as “reduced”, the “mRNA level of NOS2” value is reported as “reduced” and the “mRNA level of TNF-α” value was “reduced”. In experiment [8], the “transcription level of Arg1” value is “increased”, the “transcription level of CD206” value is recorded as “increased”, the “transcription level of IL-10” value is given as “increased” and the “transcription level of Retnla” value is on record as “increased”.
